Test results from PubChem BioAssay (NCI).
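Assay format: 96-well plates, 48-hour exposure. GI50: concentration for 50% inhibition of growth. TGI: total growth inhibition.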

Tests used:
Experiment in all cases: DTP human tumour cell line panel, 48 h
[1] = test system: NCI-H522 lung
[2] = test system: MOLT-4 leukemia
[3] = test system: NCI/ADR-RES ovarian
[4] = test system: OVCAR-4 ovarian
[5] = test system: SK-MEL-5 melanoma
[6] = test system: TK-10 renal
[7] = test system: HOP-92 NSCLC
[8] = test system: BT-549 breast

Compound	TGI [1]	TGI [2]	TGI [3]	TGI [4]	TGI [5]	TGI [6]	GI50 [1]	GI50 [2]	GI50 [3]	GI50 [4]	GI50 [7]	TGI [7]	GI50 [5]	GI50 [6]	TGI [8]
COc1ccc(N2C(=O)C3c4[nH]c5ccc(F)cc5c4C4CCC(C(C)(C)C)CC4C3C2=O)cc1 (stereo unspecified)	> 10 µM	> 10 µM	> 10 µM	> 10 µM	> 10 µM	> 10 µM									
O=C(NCCNc1nccc(-c2c(-c3cccc(O)c3)nc3sccn23)n1)c1ccccc1	25.5 µM	74.2 µM	> 100 µM	84.6 µM	17.5 µM	37.1 µM	5.76 µM	13.5 µM	34.8 µM	13.9 µM	2.22 µM	33.2 µM	4.15 µM	11.7 µM	
Cc1nc2[nH]ncn2c(=O)c1CCO	> 10 µM	> 10 µM	> 10 µM	> 10 µM	> 10 µM	> 10 µM									
COc1ccc2c3c([nH]c2c1)CCN(Cc1ccccc1)C3		73.7 µM	98.3 µM	> 100 µM	32.6 µM	65.1 µM						25.6 µM			
CCOC(=O)Cc1cnc(NC(NC(=O)CC)(C(F)(F)F)C(F)(F)F)s1	> 100 µM	> 100 µM				> 100 µM									> 100 µM
